What all share (assay): NCI tumour cell line growth inhibition, 48 h
The subject of test [1] is SK-MEL-2.
Test [2] relates to UACC-257.
Test [3] concerns KM12.
In test [4] the test system is CCRF-CEM.
Test [5] has as its system NCI-H226.
The subject of test [6] is HL-60.
In test [7] the test system is SNB-75.
Test [8] deals with U-251.
In test [9] the test system is NCI-H23.
For test [10], the system named is A549.
For test [11], the system named is COLO 205.
Test [12] deals with MDA-MB-435.
For test [13], the system named is SK-MEL-5.
For test [14], the system named is LOX IMVI.
The subject of test [15] is MOLT-4.
Test [16] concerns NCI-H522.
The subject of test [17] is MCF7.
For test [18], the system named is ACHN.
The subject of test [19] is SK-MEL-28.
The test system of test [20] is SN12C.

Structures are written as SMILES.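 Five concentrations, 48 hours, 96-well plates. GI50: concentration for 50% inhibition of growth.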 Calls of active or inactive are those of the source. Rule as the data show it: active = GI50 up to about 1.1 µM and inactive = higher.

Consider `C/C=C(/COC(C)=O)C(=O)OC1C=C(C=O)C(C)(C)C=C1C` (stereo not given), for which the GI50 was > 100 µM (inactive) in [1]; > 100 µM (inactive) in test [2]; > 100 µM (inactive) in test [3]; 37.7 µM (inactive) in test [4]; > 100 µM (inactive) in test [5]; 45.1 µM (inactive) in test [6]. For the same compound, the GI50 in test [7] is 43.6 µM (inactive); in test [8] it was > 100 µM (inactive); in test [9] it was > 100 µM (inactive); in test [10] it was > 100 µM (inactive); in test [11], > 100 µM (inactive); in [12], > 100 µM (inactive). In addition, the GI50 in test [13] is > 100 µM (inactive); in [14], > 100 µM (inactive); in test [15] it was > 10 µM (inactive); in [16] it was > 100 µM (inactive); in [17], 87.7 µM (inactive); in test [18] it was > 100 µM (inactive). Further, the GI50 in [19] and in test [20] was > 100 µM (inactive) each time.

Take `CC(C)C(Cl)CCC(C)(Cl)C(=O)CBr` (stereo not given): the GI50 is 8.32 µM (inactive) in [1]; 3.79 µM (inactive) in [2]; 14.5 µM (inactive) in test [3]; 0.331 µM (active) in test [4]; 17.8 µM (inactive) in [5]; 0.425 µM (active) in test [6]. The GI50 is 16.1 µM (inactive) in test [7]; 12.7 µM (inactive) in test [8]; 5.5 µM (inactive) in [9]; 20.8 µM (inactive) in test [10]; 3.4 µM (inactive) in [11]; 4.18 µM (inactive) in test [12]. The GI50 in test [13] is 3.24 µM (inactive); in test [14], 0.776 µM (active); in test [15], 0.418 µM (active); in test [16], 1.06 µM (active); in test [17], 2.37 µM (inactive); in test [18], 7.19 µM (inactive). In addition, the GI50 in test [19] is 5.01 µM (inactive); in [20] it was 14.5 µM (inactive).

As for `CN(C)c1ccc(/C=C(\NC(=O)c2ccccc2)C(=O)Nc2ccccc2C(=O)NN2C(=O)CSC2c2ccc(N(C)C)cc2)cc1` (stereo not given), the GI50 in test [1] was > 100 µM (inactive); in [2] it was 16.1 µM (inactive); in [3], > 100 µM (inactive); in test [4], > 100 µM (inactive); in test [5], > 100 µM (inactive); in [6], > 100 µM (inactive). In addition, the GI50 was > 100 µM (inactive) in [7]; > 100 µM (inactive) in test [8]; > 100 µM (inactive) in test [9]; > 100 µM (inactive) in test [10]; > 100 µM (inactive) in test [11]; 66.5 µM (inactive) in test [12]. The GI50 in test [13] was 94.6 µM (inactive); in test [14], > 100 µM (inactive); in test [15], > 100 µM (inactive); in test [16], 40.6 µM (inactive); in [17] it was > 100 µM (inactive); in test [18], > 100 µM (inactive). Besides, the GI50 in [19] and in [20] was > 100 µM (inactive) in each case.

For `CCN(CC)CCNc1c2ccccc2nc2cccc([N+](=O)[O-])c12`, the GI50 was 0.0133 µM (active) in test [1]; 0.0255 µM (active) in test [2]; 0.0352 µM (active) in test [3]; 0.0462 µM (active) in test [4]; 0.0179 µM (active) in test [5]; 0.046 µM (active) in [6]. The GI50 is 0.0176 µM (active) in test [7]; 0.0123 µM (active) in test [8]; 0.00787 µM (active) in test [9]; 0.00826 µM (active) in test [10]; 0.00461 µM (active) in [11]; 0.00164 µM (active) in test [12]. Moreover, the GI50 in [13] was 0.00902 µM (active); in test [14], 0.0225 µM (active); in [15], 0.0117 µM (active); in test [16] it was 0.00434 µM (active); in test [17], 0.00135 µM (active); in [18], 0.00665 µM (active). The GI50 in [19] was 0.04 µM (active); in [20], 0.0124 µM (active).

On to `CC(=O)NC1=C(C)C(=O)c2c(nc3n2CCC3OC(=O)c2ccccc2)C1=N` (stereo not given), for which the GI50 in [1] was 1.76 µM (inactive); in [2] it was 1.24 µM (inactive); in test [3], 4.55 µM (inactive); in [4] it was 1.58 µM (inactive); in test [5] it was 4.24 µM (inactive); in [6], 1.21 µM (inactive). Besides, the GI50 in [7] was 2.37 µM (inactive); in test [8] it was 3.22 µM (inactive); in test [9] it was 1.46 µM (inactive); in test [10] it was 3.18 µM (inactive); in [11], 1.38 µM (inactive); in test [12], 0.166 µM (active). The GI50 is 1.42 µM (inactive) in test [13]; 0.406 µM (active) in test [14]; 1.84 µM (inactive) in [15]; 3.83 µM (inactive) in test [16]; 0.755 µM (active) in test [17]; 1.71 µM (inactive) in test [18]. Also, the GI50 in [19] is 1.8 µM (inactive); in test [20], 1.72 µM (inactive).

(Values after ChEMBL document CHEMBL1201862, “PubChem BioAssay data set” (2004).)
